Test results from patent US10640534B2 (Agios Pharmaceuticals, Inc., priority 2012, dated 2020).

System: U87MG cells
Test: Cellular assay, inhibition of 2-HG production in U87MG cells
Format: cell-based
Conditions: Homo sapiens, U-87 MG, 48 h
How it was run: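 HT1080 or U87MG cells (U87MG kept with 500 ug/mL G418) seeded at 5000 cells/well and treated with compound at 0.2% final DMSO. Incubated 48 h at 37 °C. 2-HG inhibition determined by LC-MS. Viability read by CellTiter-Glo luminescence at 72 h post-dose.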

IC50 [nM]	SMILES
< 100	N#Cc1ccnc(N2C(=O)[C@H](O)C[C@H]2C(=O)N(c2cc(F)cc(F)c2)[C@H](C(=O)NC2CCC(F)(F)CC2)c2ccccc2Cl)c1 [Compound 125, (2S,4R)—N—((S)-1-(2-Chlorophenyl)-2-(4,4-difluorocyclohexylamino)-2-oxoethyl)-1-(4-cyanopyridin-2-yl)-N-(3,5-difluorophenyl)-4-hydroxy-5-oxopyrrolidine-2-carboxamide]
100 to 500	N#Cc1ccnc(N2C(=O)[C@H](O)C[C@H]2C(=O)N(c2cc(F)cc(F)c2)[C@@H](C(=O)NC2CCC(F)(F)CC2)c2ccccc2Cl)n1 [Compound 126, (2S,4R)—N—((R)-1-(2-Chlorophenyl)-2-(4,4-difluorocyclohexylamino)-2-oxoethyl)-1-(4-cyanopyrimidin-2-yl)-N-(3,5-difluorophenyl)-4-hydroxy-5-oxopyrrolidine-2-carboxamide]
< 100	N#Cc1ccnc(N2C(=O)[C@H](O)C[C@H]2C(=O)N(c2cc(F)cc(F)c2)[C@H](C(=O)NC2CCC(F)(F)CC2)c2ccccc2Cl)n1 [Compound 127, (2S,4R)—N—((S)-1-(2-Chlorophenyl)-2-(4,4-difluorocyclohexylamino)-2-oxoethyl)-1-(4-cyanopyrimidin-2-yl)-N-(3,5-difluorophenyl)-4-hydroxy-5-oxopyrrolidine-2-carboxamide]
< 100	N#Cc1cccc(N(C(=O)[C@@H]2CCC(=O)N2c2cc(C#N)ccn2)[C@H](C(=O)NC2CC(F)(F)C2)c2ccccc2Cl)c1 [Compound 128, (S)—N—((S)-1-(2-Chlorophenyl)-2-((3,3-difluorocyclobutyl)amino)-2-oxoethyl)-N-(3-cyano-phenyl)-1-(4-cyanopyridin-2-yl)-5-oxopyrrolidine-2-carboxamide]
< 100	COc1cccc(N(C(=O)[C@@H]2CCC(=O)N2c2cc(C#N)ccn2)[C@H](C(=O)NC2CC(F)(F)C2)c2ccccc2Cl)c1 [Compound 129, (S)—N—((S)-1-(2C)-2-((3,3-difluorocyclobutyl)amino)-2-oxoethyl)-1-(4-cyanopyridin-2-yl)-N-(3-methoxyphenyl)-5-oxopyrrolidine-2-carboxamide]
< 100	N#Cc1ccnc(N2C(=O)CC[C@H]2C(=O)N(c2cccc(CO)c2)[C@H](C(=O)NC2CC(F)(F)C2)c2ccccc2Cl)c1 [Compound 131, (S)—N—((S)-1-(2-Chlorophenyl)-2-(3,3-difluorocyclobutylamino)-2-oxoethyl)-1-(4-cyanopyridin-2-yl)-N-(3-(hydroxymethyl)phenyl)-5-oxopyrrolidine-2-carboxamide]
< 100	N#Cc1ccnc(N2C(=O)OC[C@H]2C(=O)N(c2cncc(F)c2)[C@H](C(=O)NC2CCC(F)(F)CC2)c2ccccc2Cl)c1 [Compound 132, (S)—N—((S)-1-(2-Chlorophenyl)-2-((4,4-difluorocyclohexyl)amino)-2-oxoethyl)-3-(4-cyanopyridin-2-yl)-N-(5-fluoropyridin-3-yl)-2-oxooxazolidine-4-carboxamide]
< 100	N#Cc1ccnc(N2C(=O)OCC[C@H]2C(=O)N(c2cc(F)cc(F)c2)[C@H](C(=O)NC2CC(F)(F)C2)c2ccccc2Cl)c1 [Compound 133, (S)—N—((S)-1-(2-Chlorophenyl)-2-((3,3-difluorocyclobutyl)amino)-2-oxoethyl)-3-(4-cyanopyridin-2-yl)-N-(3,5-difluorophenyl)-2-oxo-1,3-oxazinane-4-carboxamide]
< 100	N#Cc1ccnc(N2C(=O)OC[C@H]2C(=O)N(c2cncc(F)c2)[C@H](C(=O)NC2CC(F)(F)C2)c2ccccc2Cl)c1 [Compound 135, (S)—N—((S)-1-(2-Chlorophenyl)-2-((3,3-difluorocyclobutyl)amino)-2-oxoethyl)-3-(4-cyanopyridin-2-yl)-N-(5-fluoropyridin-3-yl)-2-oxooxazolidine-4-carboxamide]
< 100	N#Cc1ccnc(N2C(=O)OCC[C@H]2C(=O)N(c2cncc(F)c2)[C@H](C(=O)NC2CCC(F)(F)CC2)c2ccccc2Cl)c1 [Compound 137, (S)—N—((S)-1-(2-Chlorophenyl)-2-((4,4-difluorocyclohexyl)amino)-2-oxoethyl)-3-(4-cyano-pyridin-2-yl)-N-(5-fluoropyridin-3-yl)-2-oxo-1,3-oxazinane-4-carboxamide]
< 100	N#Cc1ccnc(N2C(=O)CC[C@H]2C(=O)N(c2cccc(F)c2)[C@H](C(=O)NC2CC(F)(F)C2)c2ccccc2)c1 [Compound 138, (S)-1-(4-Cyanopyridin-2-yl)-N—((S)-2-((3,3-difluorocyclobutyl)amino)-2-oxo-1-phenylethyl)-N-(3-fluorophenyl)-5-oxopyrrolidine-2-carboxamide]
< 100	N#Cc1ccnc(N2C(=O)OCC[C@H]2C(=O)N(c2cc(F)cc(F)c2)[C@H](C(=O)NC2CCC(F)(F)CC2)c2ccccc2Cl)c1 [Compound 139, (S)—N—((S)-1-(2-Chlorophenyl)-2-((4,4-difluorocyclohexyl)amino)-2-oxoethyl)-3-(4-cyanopyridin-2-yl)-N-(3,5-difluorophenyl)-2-oxo-1,3-oxazinane-4-carboxamide]
< 100	N#Cc1ccnc(N2C(=O)CC[C@H]2C(=O)N(c2cccc(C3(O)CC3)c2)[C@H](C(=O)NC2CC(F)(F)C2)c2ccccc2Cl)c1 [Compound 140, (S)—N—((S)-1-(2-Chlorophenyl)-2-(3,3-difluorocyclobutylamino)-2-oxoethyl)-1-(4-cyanopyridin-2-yl)-N-(3-(1-hydroxycyclopropyl)phenyl)-5-oxopyrrolidine-2-carboxamide]
< 100	N#Cc1ccnc(N2C(=O)CC[C@H]2C(=O)N(c2cccc3[nH]cnc23)C(C(=O)NC2CCC(F)(F)CC2)c2ccccc2Cl)c1 (stereo partly drawn) [Compound 141, (2S)—N-(1H-benzo[d]imidazol-7-yl)-N-(1-(2-chlorophenyl)-2-((4,4-difluorocyclohexyl)amino)-2-oxoethyl)-1-(4-cyanopyridin-2-yl)-5-oxopyrrolidine-2-carboxamide]
< 100	N#Cc1ccnc(N2C(=O)OCC[C@H]2C(=O)N(c2cncc(F)c2)[C@H](C(=O)NC2CC(F)(F)C2)c2ccccc2Cl)c1 [Compound 143, (S)—N—((S)-1-(2-Chlorophenyl)-2-((3,3-difluorocyclobutyl)amino)-2-oxoethyl)-3-(4-cyanopyridin-2-yl)-N-(5-fluoropyridin-3-yl)-2-oxo-1,3-oxazinane-4-carboxamide]
< 100	N#Cc1ccnc(N2C(=O)OCC[C@H]2C(=O)N(c2cc(F)cc(F)c2)[C@H](C(=O)NC2CCC(F)(F)CC2)c2ccccc2Cl)n1 [Compound 144, (S)—N—((S)-1-(2-Chlorophenyl)-2-((4,4-difluorocyclohexyl)amino)-2-oxoethyl)-3-(4-cyanopyrimidin-2-yl)-N-(3,5-difluorophenyl)-2-oxo-1,3-oxazinane-4-carboxamide]
< 100	CC(C)(O)c1cc(F)cc(N(C(=O)[C@@H]2COC(=O)N2c2cc(C#N)ccn2)C(C(=O)NC2CC(F)(F)C2)c2ccccc2Cl)c1 (stereo partly drawn) [Compound 145, (4S)—N-(1-(2-Chlorophenyl)-2-(3,3-difluorocyclobutylamino)-2-oxoethyl)-3-(4-cyanopyridin-2-yl)-N-(3-fluoro-5-(2-hydroxypropan-2-yl)phenyl)-2-oxooxazolidine-4-carboxamide]
< 100	CC(C)(O)c1cc(F)cc(N(C(=O)[C@@H]2CCOC(=O)N2c2cc(C#N)ccn2)[C@H](C(=O)NC2CC(F)(F)C2)c2ccccc2Cl)c1 [Compound 146, (S)—N—((S)-1-(2-Chlorophenyl)-2-(3,3-difluorocyclobutylamino)-2-oxoethyl)-3-(4-cyanopyridin-2-yl)-N-(3-fluoro-5-(2-hydroxypropan-2-yl)phenyl)-2-oxo-1,3-oxazinane-4-carboxamide]
< 100	N#Cc1ccnc(N2C(=O)CC[C@H]2C(=O)N(c2cncc(F)c2)[C@H](C(=O)NC2CC(F)(F)C2)c2ccccc2)c1 [Compound 147, (S)-1-(4-Cyanopyridin-2-yl)-N—((S)-2-((3,3-difluorocyclobutyl)amino)-2-oxo-1-phenylethyl)-N-(5-fluoropyridin-3-yl)-5-oxopyrrolidine-2-carboxamide]
< 100	N#Cc1ccnc(N2C(=O)CC[C@H]2C(=O)N(c2cncc(F)c2)[C@H](C(=O)NC2CC(F)(F)C2)c2ccccc2F)c1 [Compound 148, (S)-1-(4-Cyanopyridin-2-yl)-N—((S)-2-((3,3-difluorocyclobutyl)amino)-1-(2-fluorophenyl)-2-oxoethyl)-N-(5-fluoropyridin-3-yl)-5-oxopyrrolidine-2-carboxamide]
< 100	N#Cc1ccnc(N2C(=O)CC[C@H]2C(=O)N(c2cccc(F)c2)[C@H](C(=O)NC2CC(F)(F)C2)c2ccccc2F)c1 [Compound 149, (S)-1-(4-Cyanopyridin-2-yl)-N—((S)-2-((3,3-difluorocyclobutyl)amino)-1-(2-fluorophenyl)-2-oxoethyl)-N-(3-fluorophenyl)-5-oxopyrrolidine-2-carboxamide]
< 100	CC(C)(O)c1cc(F)cc(N(C(=O)[C@@H]2CCC(=O)N2c2cc(C#N)ccn2)[C@H](C(=O)NC2CC(F)(F)C2)c2ccccc2Cl)c1 [Compound 150, (S)—N—((S)-1-(2-Chlorophenyl)-2-(3,3-difluorocyclobutylamino)-2-oxoethyl)-1-(4-cyanopyridin-2-yl)-N-(3-fluoro-5-(2-hydroxypropan-2-yl)phenyl)-5-oxopyrrolidine-2-carboxamide]
< 100	N#Cc1ccnc(N2C(=O)[C@H](F)C[C@H]2C(=O)N(c2cccc(F)c2)[C@H](C(=O)NC2CCC(F)(F)CC2)c2ccccc2Cl)c1 [Compound 151, (2S,4R)—N—((S)-1-(2-Chlorophenyl)-2-((4,4-difluorocyclohexyl)amino)-2-oxoethyl)-1-(4-cyanopyridin-2-yl)-4-fluoro-N-(3-fluorophenyl)-5-oxopyrrolidine-2-carboxamide]
< 100	N#Cc1ccnc(N2C(=O)CC[C@H]2C(=O)N(c2cccc3[nH]ncc23)C(C(=O)NC2CC(F)(F)C2)c2ccccc2Cl)c1 (stereo partly drawn) [Compound 152, (2S)—N-(1-(2-Chlorophenyl)-2-((3,3-difluorocyclobutyl)amino)-2-oxoethyl)-1-(4-cyanopyridin-2-yl)-N-(1H-indazol-4-yl)-5-oxopyrrolidine-2-carboxamide]
